{"source": "the NIST ThermoML archive (doi:10.1016/j.jct.2007.02.009)", "key": {"[1]": {"conditions": "Crystal; Adiabatic calorimetry"}, "[2]": {"assay": "Molar enthalpy of transition or fusion", "conditions": "Crystal; Adiabatic calorimetry"}}, "note": "Numbers after ± are expanded uncertainties.", "data": [{"smiles": "CC(=O)N(C)C", "note": "[N,N-dimethylethanamide]", "values": [{"measurement": "Triple point temperature", "setting": "[1]", "result": "254.23 ± 0.18", "unit": "K"}, {"measurement": "Molar enthalpy of transition or fusion", "setting": "[2]", "result": "2.44 ± 0.0598", "unit": "kcal/mol"}]}]}
